Experimental data published in patent US20050203124A1, “Compounds for the sustained reduction of body weight” (Boehringer Ingelheim International GmbH, priority 2004, published 2005).

Assay: Clinical studies: monitoring of body weight (vital sign) under multiple ascending doses
Type: in vivo, patients
From the text: Clinical Studies have been carried out in order to compare the maintenance doses of the compounds of formula IA, including its metabolite IB, that were used in 3 studies.
The studies were randomized, double-blind, placebo-controlled per ascending dose group. The studies were designed to assess the safety, tolerability, phamacokinetics (PK), and preliminary efficacy of multiple ascending doses of the compound of formula IA in patients with possible Alzheimer's Disease (AD).
Two studies were performed consecutively with 0.125/0.25 and 0.5/1.0 mg of the compound of formula IA daily every morning to assess the safety and preliminary efficacy of multiple given for 28 days in those patients. After the completion of the first two studies a […] was initiated in elderly volunteers in order to investigate the safety and PK of a median dose of 0.75 mg of the compound of formula IA daily in the morning than were used in the first two studies. Depending on the maintenance dose an at least double loading dose was administrated for up to 6 days.
To determine the safety, tolerability of ascending multiple doses of the compound of formula IA (5 dose levels) given for 28 days, and to determine the preliminary multiple dose (4-week) pharmacokinetics (PK) of the compound of formula IA. […]

Structure (SMILES): CCOC[C@H]1C2CCC(C[C@@H]1c1ccc(Cl)c(Cl)c1)N2C (some centres unmarked) [Compound of formula IA]
- body weight under treatment (change in weight, FIGS. 3 and 4) (patients with possible Alzheimer's Disease / elderly volunteers, aged 55 to 80, 0.125 to 1.0 mg daily for 28 days, placebo-controlled): clearly reduces the bodyweight
- body weight after the treatment has been stopped (change in weight, FIGS. 5 and 6) (same studies, follow-up 56 to 70 days after beginning of the 28-day treatment): still further reduced
